Source: article PMC7552967, “Anti-Melanoma Activities of Artemisone and Prenylated Amino-Artemisinins in Combination With Known Anticancer Drugs” (Frontiers in Pharmacology, 2020)

Test system: TK10 renal cancer cells
Test: Sulforhodamine B (SRB) growth inhibition assay, TK10
Type: cell-based
Details: Homo sapiens, TK-10, mean ± SD
Text: The human cell lines TK10 (human kidney adenocarcinoma), UACC62 (human melanoma) and MCF7 (human breast adenocarcinoma) were obtained from the National Cancer Institute (NCI) as part of a panel widely studied for drug screening and molecular target identification. Melanoma (A375) and human embryonic kidney (HEK293) were acquired from the American Type Culture Collection; ATCC® CRL-1619™ and ATCC® CRL-1573™ respectively. The nontumorigenic human immortalized keratinocyte (HaCaT) cells were a kind donation by the School of Anatomical Sciences, Faculty of Health Sciences, University of the Witwatersrand, South Africa. […]
The growth inhibitory effects of the compounds were tested in the 3-cell line panel consisting of TK10 (renal), UACC62 (melanoma) and MCF7 (breast) cancer cells by Sulforhodamine B (SRB) assay. In addition, activity was also evaluated against HEK293 cells with the 3-(4,5-dimethylthiazol-2-yl)-2,5-diphenyl tetrazolium bromide (MTT) assay ([Mosmann, 1983]). […] The results were expressed as half maximal inhibitory concentrations (IC50) as described before ([Lewies et al., 2018]). […] After incubation, cell viability was determined using a microplate reader (BioTek®, Vermont, USA) at an excitation wavelength of 560 nm and emission wavelength of 630 nm with DMSO measured as a blank. […] Using the MTT assay data, IC50 values were calculated using GraphPad Prism 8. […]

Structure (SMILES)	IC50 [µM]
C[C@H]1[C@H](N2CCS(=O)(=O)CC2)O[C@@H]2O[C@@]3(C)CC[C@H]4[C@H](C)CC[C@@H]1[C@@]24OO3 [Artemisone 4, artemisone]	> 100
CC(C)=CCC/C(C)=C/CC/C(C)=C/CN1CCN([C@@H]2O[C@@H]3O[C@@]4(C)CC[C@H]5[C@H](C)CC[C@@H]([C@H]2C)[C@@]35OO4)CC1 [Farnesylpiperazine-DHA 7, farnesylpiperazine-DHA]	3 ± 0.67
